TGI and GI50 data for 8 compounds are collected here from PubChem BioAssay (NCI).

Holding throughout (test): growth of human tumour cells (NCI), 48 h
Assay [1] has as its system EKVX NSCLC.
Assay [2] deals with HS 578T breast.
In assay [3] the test system is IGROV1 ovarian.
Assay [4] relates to OVCAR-3 ovarian.
The test system of assay [5] is SF-539 CNS.
Assay [6] has as its system SK-MEL-28 melanoma.
The test system of assay [7] is SK-OV-3 ovarian.
Assay [8] deals with SN12C renal.
In assay [9] the test system is T-47D breast.
For assay [10], the system named is UACC-62 melanoma.

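1) Cells in 96-well plates. 2) Compound, 48 h, 5 concentrations. 3) Linear interpolation between surrounding doses. 4) Unreached endpoint = highest concentration. GI50 is the concentration that inhibits growth by half. The concentration for full growth arrest is given as TGI.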

For `O=C(O)Cc1cccnc1`, the TGI in [1], in assay [2], in assay [3], in assay [4], in [5] and in assay [6] was more than 100 µM each time. For the same compound, the TGI in assay [7], in assay [8], in [9] and in assay [10] was more than 100 µM each time.
Regarding `CCC1(O)C(=O)OCc2c1cc1n(c2=O)Cc2cc3c(NC(=O)CN)cccc3nc2-1` (stereo not drawn), the GI50 in assay [1] is 19.7 µM; in assay [2] it was 28.9 µM; in assay [3], 3900 nM; in [4], 3.3 µM; in [5] it was 110 nM; in [7] it was 0.377 µM. Further, the figures for the GI50 in assay [8], in assay [9] and in [10] were 102 nM, 329 nM and 92.7 nM, respectively. Besides, the TGI in [1] is more than 88.2 µM; in [2], more than 100 µM; in [3], 73.4 µM; in [4] it was 22.3 µM; in assay [5], 0.821 µM; in assay [6], more than 100 µM. The TGI came out at 31.3 µM in assay [7], 10.1 µM in assay [8] and 0.852 µM in assay [10].
Turning to `Cc1cc(N(CCCNc2ccnc3cc(Cl)ccc23)Cc2ccco2)nc(N2CCN(C)CC2)n1`, the GI50 in assay [1] is 4.99 µM; in [2], 2.43 µM; in [3], 2390 nM; in [4], 2.87 µM; in assay [5], 1680 nM; in assay [6], 1740 nM. Moreover, the GI50 is 5.99 µM in assay [7], 4240 nM in assay [8], 2150 nM in [9] and 1990 nM in assay [10]. Moreover, the TGI worked out at 22 µM in [1]; 7.85 µM in [2]; 12.3 µM in [3]; 12.1 µM in assay [4]; 3.23 µM in assay [5]; 3.41 µM in assay [6]. Moreover, the TGI in assay [7] turned out to be 31.2 µM; in assay [8], 17 µM; in [9], 5.68 µM; in [10], 3.74 µM.
On to `Nc1nc(Nc2ccccc2SSc2ccccc2Nc2nc(N)nc(C(Cl)(Cl)Cl)n2)nc(C(Cl)(Cl)Cl)n1`, for which the GI50 in assay [1] is 5.8 µM; in assay [2] it was 5.44 µM; in [3] it was 3490 nM; in assay [4], 10.4 µM; in assay [5], 11200 nM; in [6], 10900 nM. For the same compound, the GI50 in [7] was 26.4 µM; in assay [8], 2460 nM; in assay [9], 2790 nM; in [10], 2940 nM. Besides, the TGI in [1] was 20.4 µM; in [2] it was more than 100 µM; in [3] it was 15.7 µM; in assay [4], 33.8 µM; in assay [5], 24.7 µM; in assay [6] it was 23.6 µM. The TGI turned out to be 91.3 µM in assay [7], 7.26 µM in [8], 39.2 µM in assay [9] and 11.4 µM in assay [10].
`C#CCNC(=O)[C@H](CC)[C@H]1CC[C@H](C)[C@H]([C@@H](C)[C@H](O)[C@H](C)C(=O)[C@H](CC)C2O[C@]3(C=CC(=O)[C@]4(CC[C@@](C)([C@H]5CC[C@](O)(CC)[C@H](C)O5)O4)O3)[C@H](C)C[C@@H]2C)O1` (stereo partly drawn): the GI50 was 2.59 µM in assay [1]; 2.06 µM in assay [2]; 2030 nM in assay [3]; 1.86 µM in assay [4]; 1750 nM in assay [5]; 1870 nM in assay [6]. Further, the GI50 in assay [7] is 3.42 µM; in assay [8] it was 2290 nM; in assay [9] it was 2360 nM; in assay [10], 1680 nM. Moreover, the TGI in assay [1] is more than 100 µM; in [2] it was 6.71 µM; in assay [3], 7.92 µM; in assay [4], 3.98 µM; in assay [5] it was 3.36 µM; in [6], 3.96 µM. In addition, the TGI in assay [7] is more than 100 µM; in assay [8], 6.58 µM; in [9] it was 9 µM; in assay [10], 4.28 µM.
In the case of `NS(=O)(=O)c1ccc(-c2cc3ccncc3cc2OCc2ccccc2)cc1`, the GI50 in [1] is more than 22.9 µM; in assay [2], 7.04 µM; in assay [3] it was more than 25000 nM; in assay [4], 12.1 µM; in [5], 7170 nM; in assay [6], 20600 nM. Moreover, the GI50 in assay [7] was 11.1 µM; in assay [8], 24900 nM; in assay [9], more than 19400 nM; in assay [10] it was more than 23700 nM. In addition, the TGI in assay [1], in [2], in assay [3], in [4], in [5] and in [6] was more than 25 µM each time. The TGI is more than 19.3 µM in assay [7], more than 25 µM in assay [8], more than 25 µM in assay [9] and more than 25 µM in [10].
With `Cc1ccc(-c2nc([P+](c3ccccc3)(c3ccccc3)c3ccccc3)c(S(=O)(=O)c3ccc(C)cc3)o2)cc1`, the GI50 in assay [1] was 1.21 µM; in assay [2], 1.7 µM; in [3] it was 1610 nM; in assay [4], 0.755 µM; in assay [5] it was 1580 nM; in [6] it was 1700 nM. Moreover, the GI50 in assay [7] was 3.74 µM; in assay [8] it was 1060 nM; in assay [9] it was 1990 nM; in assay [10], 1530 nM. The TGI in assay [1] was 2.98 µM; in assay [2] it was 5.31 µM; in [3], 3.15 µM; in assay [4], 2.07 µM; in assay [5] it was 2.92 µM; in assay [6], 3.09 µM. For the same compound, the TGI in assay [7] came to 12.5 µM; in assay [8], 2.34 µM; in assay [9], 5.23 µM; in [10] it was 2.89 µM.
Consider `O=C1c2sccc2-c2cccc3cccc1c23` (tested in a mixture with another compound), for which the TGI in [1] is 0.105 µM; in assay [2], 6.72 µM; in assay [3], 50.2 µM; in assay [4], 67.8 µM; in assay [5] it was 32.2 µM; in assay [6] it was more than 100 µM. The TGI in [7] was more than 100 µM; in assay [8], 89.4 µM; in assay [9], 28.2 µM; in assay [10], 22.6 µM.
